# What was measured:
# E. coli (Ec) = experiment: Growth (cell density) in tryptic soy broth supplemented with 4VP or CA; assay type: cell-based, Escherichia coli; details: Ec and Ec PAD, 24 h, FIG. 1c, f
# Description: (§1) To test whether the PAD strains were able to convert CA to 4VP and evaluate their tolerance to different concentrations of substrate and product, growth experiments were performed in tryptic soy broth supplemented with 0.25 or 0.5 g/L of 4VP, or 1, 5 or 10 g/L of CA. This rich medium was used to provide all the organisms with glucose and amino acids for growth and cell maintenance and allow for continuous PAD protein production during the 4VP production process. The bacterial cell density was measured at the time of inoculation and after 24 h of incubation, and PAD expression was induced at the beginning of the cultivations.
# (§2) Cultivations were performed in 48-well flat bottom clear plates (Corning, USA) when an organic overlay was not added, in 48-well FlowerPlates (m2p, Germany) when an overlay was added to rich medium, and in 14 mL round-bottom plastic tubes for lignin liquors with an overlay. Seed cultures of all strains listed in Table 1 were started by inoculating cells from agar plates into tubes with 5 mL of tryptic soy broth and incubating at 30° C. with vigorous shaking for 12 h. For the experiments in the clear plates, inocula were prepared by mixing 1 mL of the seed cultures with 9 mL of fresh tryptic soy broth and incubated for 8 h. […] The optical density at 595 nm was measured using a DTX880 plate reader (Beckton-Coulter, USA).
# all tested organisms = experiment: as above; assay type: cell-based, E. coli, B. subtilis, C. glutamicum, B. amyloliquefaciens; details: tryptic soy broth with 0.25 or 0.5 g/L 4VP, 24 h
# Description: as §1, §2
# [1] = Distribution between aqueous phase and organic overlay in biphasic cultivations (HPLC); assay type: physicochemical
# Description: One example is the extraction of 4VP from the aqueous phase with octanol in a continuous flow-bed reactor containing immobilized E. coli cells. […] Therefore, we compared the performance of octanol to other mid-chain fatty alcohols with slightly longer alkane chains, decanol and undecanol, when added as overlays to the cultivation media (20% of the aqueous phase volume). To obtain high product concentrations and identify any limitations to the amount of 4VP that can be extracted with the overlays, the four recombinant strains were incubated in the presence of 25 or 75 g/L of CA.
# The lignocellulose-derived CA was used to cultivate the 4VP producing strains. […] However, this culture system is not amenable for repeated sampling of aqueous and organic phases to quantify metabolites or for monitoring cell growth in the presence of overlays and dark lignin liquors. Therefore, the incubations in CA-rich liquors were performed in culture tubes in presence of an undecanol overlay, and the OD, CA and 4VP concentrations were measured at 0, 12 and 24 h after inoculation. […]
# CA and 4VP were quantified by HPLC in samples taken from the aqueous and organic phases of the cultivations or lignin liquors after diluting with water (aqueous samples) or pure acetonitrile (organic samples). […]
# E. coli = details: cited from earlier work; for toxicity of organic solvent to E. coli: literature reports [10, 16, 17, 25]
# Cg and Cg phdA- strains = experiment: Growth (cell density) in tryptic soy broth supplemented with 4VP or CA; assay type: cell-based, Corynebacterium glutamicum; details: 24 h, FIG. 1a, b
# Description: as §1, §2
# all Bacillus species = experiment: as above; assay type: cell-based, Bacillus subtilis, Bacillus amyloliquefaciens; details: 24 h, FIG. 1g-i
# Description: as §1, §2
# PAD enzyme = details: literature reports [10, 16, 17, 25]; cited from earlier work
# microbes = details: literature report [3]; cited from earlier work
compound,measurement,setting,value
"C=Cc1ccc(O)cc1 [4VP, 4-vinylphenol]",4VP concentration displaying growth inhibition,E. coli (Ec),0.25 g/L
same,toxicity of 4VP,all tested organisms,very toxic
same,share of product extracted in the organic phase,"[1]; undecanol overlay, lignin liquors from corn stover residue",97%
same,toxicity to E. coli relative to CA,E. coli; literature report [12],significantly more toxic to E. coli than CA
"O=C(O)/C=C/c1ccc(O)cc1 [CA, p-coumaric acid]",CA concentration in the presence of which strains are able to grow (tolerance),Cg and Cg phdA- strains,up to 10 g/L
same,CA concentration above which strains are unable to grow,all Bacillus species,more than 1 g/L
same,share of CA not consumed found in the aqueous phase,"[1]; octanol, decanol or undecanol overlay (20% of aqueous volume), tryptic soy broth with 25 or 75 g/L CA",more than 90%
CCCCCC [hexane],toxicity of organic solvent to E. coli,E. coli,significant toxicity
same,effect of organic solvent on PAD enzyme activity,PAD enzyme,inhibition
CCCCCCCCO [octanol],toxicity of organic solvent to E. coli,E. coli,significant toxicity
same,effect of organic solvent on PAD enzyme activity,PAD enzyme,inhibition
same,toxicity of solvent to microbes,microbes,significant toxicity
